Columns and labels:
Cannabinoid receptor 1 = Cannabinoid receptor 1 (Homo sapiens, UniProt P21554); format: functional, cell-based
Vasopressin V2 receptor = Vasopressin V2 receptor (Homo sapiens, UniProt P30518)
[1] = molecular target: Delta-type opioid receptor (Homo sapiens, UniProt P41143)
Glucocorticoid receptor = molecular target: T1, Glucocorticoid receptor (Homo sapiens, UniProt P04150)
T1 sequence (P04150 whole entry): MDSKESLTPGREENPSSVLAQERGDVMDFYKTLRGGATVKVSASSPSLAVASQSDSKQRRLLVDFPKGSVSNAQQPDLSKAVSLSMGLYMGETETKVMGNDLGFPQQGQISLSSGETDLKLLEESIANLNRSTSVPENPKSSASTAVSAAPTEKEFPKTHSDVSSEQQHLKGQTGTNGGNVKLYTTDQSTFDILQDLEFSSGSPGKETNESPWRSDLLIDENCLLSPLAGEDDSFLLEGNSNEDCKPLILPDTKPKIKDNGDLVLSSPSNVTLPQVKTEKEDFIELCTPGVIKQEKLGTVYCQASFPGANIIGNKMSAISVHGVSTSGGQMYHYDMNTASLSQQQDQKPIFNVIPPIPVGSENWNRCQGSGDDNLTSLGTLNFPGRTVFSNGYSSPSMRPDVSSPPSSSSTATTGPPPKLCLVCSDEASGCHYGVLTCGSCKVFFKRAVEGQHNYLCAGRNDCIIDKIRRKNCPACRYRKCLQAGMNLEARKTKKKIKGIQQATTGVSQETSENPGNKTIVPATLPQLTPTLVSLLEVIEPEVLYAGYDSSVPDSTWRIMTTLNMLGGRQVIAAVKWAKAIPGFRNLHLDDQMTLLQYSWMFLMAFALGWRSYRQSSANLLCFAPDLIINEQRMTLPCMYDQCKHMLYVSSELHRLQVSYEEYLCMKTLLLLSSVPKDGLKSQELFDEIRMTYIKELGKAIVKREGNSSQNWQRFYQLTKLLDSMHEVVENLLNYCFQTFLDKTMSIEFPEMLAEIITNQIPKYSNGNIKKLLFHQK

[2] = molecular target: T2, Alpha-2A adrenergic receptor (Homo sapiens, UniProt P08913); format: functional, cell-based
T2 sequence (P08913 whole entry): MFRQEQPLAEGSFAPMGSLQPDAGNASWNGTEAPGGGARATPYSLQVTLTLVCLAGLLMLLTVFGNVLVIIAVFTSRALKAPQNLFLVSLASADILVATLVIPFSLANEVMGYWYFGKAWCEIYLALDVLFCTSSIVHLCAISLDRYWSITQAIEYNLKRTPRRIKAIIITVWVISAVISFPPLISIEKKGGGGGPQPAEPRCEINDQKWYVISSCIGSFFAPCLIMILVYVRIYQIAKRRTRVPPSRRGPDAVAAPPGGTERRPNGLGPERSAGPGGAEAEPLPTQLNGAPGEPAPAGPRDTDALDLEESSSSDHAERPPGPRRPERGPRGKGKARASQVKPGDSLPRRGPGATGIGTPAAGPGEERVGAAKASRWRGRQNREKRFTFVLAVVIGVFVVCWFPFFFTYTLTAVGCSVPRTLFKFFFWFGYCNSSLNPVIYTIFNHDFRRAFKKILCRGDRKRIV

[3] = molecular target: T3, Gastrin/cholecystokinin type B receptor (Homo sapiens, UniProt P32239)
T3 sequence (P32239 whole entry): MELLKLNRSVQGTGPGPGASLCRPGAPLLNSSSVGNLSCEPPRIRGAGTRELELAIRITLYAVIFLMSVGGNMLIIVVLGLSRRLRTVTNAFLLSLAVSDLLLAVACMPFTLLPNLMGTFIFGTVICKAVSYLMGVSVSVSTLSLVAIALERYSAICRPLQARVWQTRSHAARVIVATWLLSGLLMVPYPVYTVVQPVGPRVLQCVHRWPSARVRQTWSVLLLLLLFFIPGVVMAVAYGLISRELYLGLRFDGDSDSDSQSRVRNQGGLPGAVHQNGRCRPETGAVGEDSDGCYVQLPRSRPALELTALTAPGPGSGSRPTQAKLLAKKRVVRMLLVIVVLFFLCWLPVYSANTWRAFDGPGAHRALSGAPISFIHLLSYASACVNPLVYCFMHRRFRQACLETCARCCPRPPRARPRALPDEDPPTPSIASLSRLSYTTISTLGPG

[4] = molecular target: 5-hydroxytryptamine receptor 2B (Homo sapiens, UniProt P41595); format: functional, cell-based
Sequence of 5-hydroxytryptamine receptor 2B (P41595 whole entry): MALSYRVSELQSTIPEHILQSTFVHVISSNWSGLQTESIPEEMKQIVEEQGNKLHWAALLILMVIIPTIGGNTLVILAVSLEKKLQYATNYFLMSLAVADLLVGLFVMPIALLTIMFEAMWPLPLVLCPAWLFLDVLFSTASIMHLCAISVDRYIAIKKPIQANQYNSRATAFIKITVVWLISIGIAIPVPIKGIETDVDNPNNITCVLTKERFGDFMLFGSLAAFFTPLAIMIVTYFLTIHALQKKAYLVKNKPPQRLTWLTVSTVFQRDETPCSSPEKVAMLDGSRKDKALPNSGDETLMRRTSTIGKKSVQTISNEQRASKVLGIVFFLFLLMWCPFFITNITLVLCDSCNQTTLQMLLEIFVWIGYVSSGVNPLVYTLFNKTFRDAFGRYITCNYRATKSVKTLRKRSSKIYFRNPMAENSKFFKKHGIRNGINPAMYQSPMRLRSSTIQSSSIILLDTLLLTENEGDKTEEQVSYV

[5] = molecular target: Gamma-aminobutyric acid receptor subunit alpha-1 (Rattus norvegicus, UniProt P62813)
Sequence of Gamma-aminobutyric acid receptor subunit alpha-1 (P62813 whole entry): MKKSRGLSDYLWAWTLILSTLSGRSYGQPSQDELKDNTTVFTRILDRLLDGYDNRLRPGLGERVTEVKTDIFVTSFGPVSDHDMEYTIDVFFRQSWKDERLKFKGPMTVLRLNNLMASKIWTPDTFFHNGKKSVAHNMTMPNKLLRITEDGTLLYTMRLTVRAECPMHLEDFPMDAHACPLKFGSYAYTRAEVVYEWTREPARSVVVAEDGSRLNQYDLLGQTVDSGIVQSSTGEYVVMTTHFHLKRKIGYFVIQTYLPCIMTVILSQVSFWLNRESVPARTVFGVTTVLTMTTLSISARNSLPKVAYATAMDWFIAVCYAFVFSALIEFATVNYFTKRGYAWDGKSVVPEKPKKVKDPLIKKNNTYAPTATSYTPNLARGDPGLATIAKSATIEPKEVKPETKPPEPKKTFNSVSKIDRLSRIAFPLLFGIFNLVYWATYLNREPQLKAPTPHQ

Adenosine receptor A1 = molecular target: T4, Adenosine receptor A1 (Homo sapiens, UniProt P30542)
T4 sequence (P30542 whole entry): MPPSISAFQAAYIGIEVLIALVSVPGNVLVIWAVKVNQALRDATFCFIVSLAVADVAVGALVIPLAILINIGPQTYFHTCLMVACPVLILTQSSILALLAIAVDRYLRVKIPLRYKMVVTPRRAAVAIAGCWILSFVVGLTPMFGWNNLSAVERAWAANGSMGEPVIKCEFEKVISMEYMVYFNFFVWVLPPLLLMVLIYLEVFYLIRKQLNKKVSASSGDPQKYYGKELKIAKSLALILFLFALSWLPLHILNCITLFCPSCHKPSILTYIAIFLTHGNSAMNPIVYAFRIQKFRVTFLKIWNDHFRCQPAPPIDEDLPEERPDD

Histamine H3 receptor = Histamine H3 receptor (Homo sapiens, UniProt Q9Y5N1)
Sequence of Histamine H3 receptor (Q9Y5N1 whole entry): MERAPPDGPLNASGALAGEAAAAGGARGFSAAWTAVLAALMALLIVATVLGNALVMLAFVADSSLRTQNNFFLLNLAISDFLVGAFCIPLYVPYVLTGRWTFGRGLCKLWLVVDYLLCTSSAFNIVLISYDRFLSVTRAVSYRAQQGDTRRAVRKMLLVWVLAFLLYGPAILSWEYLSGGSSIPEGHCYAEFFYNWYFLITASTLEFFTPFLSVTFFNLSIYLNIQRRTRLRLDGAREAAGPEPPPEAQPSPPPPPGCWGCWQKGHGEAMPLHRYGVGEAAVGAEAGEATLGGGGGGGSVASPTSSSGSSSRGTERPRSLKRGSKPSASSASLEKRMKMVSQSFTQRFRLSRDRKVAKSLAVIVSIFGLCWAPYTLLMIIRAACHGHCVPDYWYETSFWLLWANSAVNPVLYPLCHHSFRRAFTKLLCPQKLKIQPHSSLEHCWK

[6] = molecular target: Kappa-type opioid receptor (Homo sapiens, UniProt P41145)
Sequence of Kappa-type opioid receptor (P41145 whole entry): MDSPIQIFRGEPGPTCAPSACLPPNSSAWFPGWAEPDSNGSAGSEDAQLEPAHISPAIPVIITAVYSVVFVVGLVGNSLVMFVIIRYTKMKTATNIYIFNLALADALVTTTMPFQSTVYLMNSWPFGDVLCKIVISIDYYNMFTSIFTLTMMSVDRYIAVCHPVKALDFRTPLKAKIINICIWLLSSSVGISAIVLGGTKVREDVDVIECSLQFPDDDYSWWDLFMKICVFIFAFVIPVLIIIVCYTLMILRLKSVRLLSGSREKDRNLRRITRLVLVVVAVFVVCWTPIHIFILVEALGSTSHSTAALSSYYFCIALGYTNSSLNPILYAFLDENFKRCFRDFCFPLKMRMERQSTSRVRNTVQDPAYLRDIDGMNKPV

[7] = molecular target: T5, 5-hydroxytryptamine receptor 1A (Homo sapiens, UniProt P08908); format: functional, cell-based
T5 sequence (P08908 whole entry): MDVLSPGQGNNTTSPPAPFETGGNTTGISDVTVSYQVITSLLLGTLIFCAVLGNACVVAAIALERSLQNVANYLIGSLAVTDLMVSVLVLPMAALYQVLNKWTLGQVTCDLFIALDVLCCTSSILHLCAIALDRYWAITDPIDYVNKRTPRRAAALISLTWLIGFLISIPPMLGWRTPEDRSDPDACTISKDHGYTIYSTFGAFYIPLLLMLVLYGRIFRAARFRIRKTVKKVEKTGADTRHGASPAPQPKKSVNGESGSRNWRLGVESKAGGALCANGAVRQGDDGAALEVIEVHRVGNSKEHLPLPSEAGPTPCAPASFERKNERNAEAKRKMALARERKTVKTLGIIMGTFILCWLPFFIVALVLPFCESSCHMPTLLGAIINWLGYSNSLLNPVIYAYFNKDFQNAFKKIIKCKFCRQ

[8] = molecular target: 5-hydroxytryptamine receptor 2A (Homo sapiens, UniProt P28223); format: functional, cell-based
Sequence of 5-hydroxytryptamine receptor 2A (P28223 whole entry): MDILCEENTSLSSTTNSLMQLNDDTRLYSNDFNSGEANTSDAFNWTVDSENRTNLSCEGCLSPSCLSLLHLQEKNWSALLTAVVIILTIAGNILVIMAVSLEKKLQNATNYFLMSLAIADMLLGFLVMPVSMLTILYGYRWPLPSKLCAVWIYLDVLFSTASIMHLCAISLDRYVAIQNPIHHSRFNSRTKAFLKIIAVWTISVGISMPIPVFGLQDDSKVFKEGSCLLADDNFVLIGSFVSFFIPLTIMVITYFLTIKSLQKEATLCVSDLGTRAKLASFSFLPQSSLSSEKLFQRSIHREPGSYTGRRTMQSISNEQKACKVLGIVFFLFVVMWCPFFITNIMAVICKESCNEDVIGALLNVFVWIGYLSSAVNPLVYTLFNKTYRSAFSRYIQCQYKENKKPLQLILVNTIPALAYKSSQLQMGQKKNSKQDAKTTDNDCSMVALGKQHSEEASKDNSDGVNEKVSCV
Further: assay procedure not described here.

Sequence of Delta-type opioid receptor (P41143 whole entry): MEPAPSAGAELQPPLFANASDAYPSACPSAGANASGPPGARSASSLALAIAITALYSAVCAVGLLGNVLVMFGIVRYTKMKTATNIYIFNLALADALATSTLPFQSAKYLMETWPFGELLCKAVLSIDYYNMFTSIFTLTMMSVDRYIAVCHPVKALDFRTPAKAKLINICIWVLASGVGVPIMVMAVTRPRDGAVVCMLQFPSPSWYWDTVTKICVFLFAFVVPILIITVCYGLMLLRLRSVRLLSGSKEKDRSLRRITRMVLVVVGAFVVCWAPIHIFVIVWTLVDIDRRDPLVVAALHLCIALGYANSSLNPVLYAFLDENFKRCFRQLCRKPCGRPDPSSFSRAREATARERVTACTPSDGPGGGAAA
Sequence of Vasopressin V2 receptor (P30518 whole entry): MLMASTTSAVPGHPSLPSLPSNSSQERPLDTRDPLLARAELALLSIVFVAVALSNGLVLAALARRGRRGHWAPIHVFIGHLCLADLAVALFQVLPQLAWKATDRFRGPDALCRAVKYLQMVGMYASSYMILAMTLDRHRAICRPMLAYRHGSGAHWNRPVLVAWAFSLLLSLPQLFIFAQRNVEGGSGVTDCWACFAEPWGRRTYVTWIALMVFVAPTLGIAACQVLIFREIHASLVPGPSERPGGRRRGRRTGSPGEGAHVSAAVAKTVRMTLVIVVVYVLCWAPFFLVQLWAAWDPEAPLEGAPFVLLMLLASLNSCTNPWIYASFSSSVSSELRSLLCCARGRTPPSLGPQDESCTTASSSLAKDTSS
Sequence of Cannabinoid receptor 1 (P21554 whole entry): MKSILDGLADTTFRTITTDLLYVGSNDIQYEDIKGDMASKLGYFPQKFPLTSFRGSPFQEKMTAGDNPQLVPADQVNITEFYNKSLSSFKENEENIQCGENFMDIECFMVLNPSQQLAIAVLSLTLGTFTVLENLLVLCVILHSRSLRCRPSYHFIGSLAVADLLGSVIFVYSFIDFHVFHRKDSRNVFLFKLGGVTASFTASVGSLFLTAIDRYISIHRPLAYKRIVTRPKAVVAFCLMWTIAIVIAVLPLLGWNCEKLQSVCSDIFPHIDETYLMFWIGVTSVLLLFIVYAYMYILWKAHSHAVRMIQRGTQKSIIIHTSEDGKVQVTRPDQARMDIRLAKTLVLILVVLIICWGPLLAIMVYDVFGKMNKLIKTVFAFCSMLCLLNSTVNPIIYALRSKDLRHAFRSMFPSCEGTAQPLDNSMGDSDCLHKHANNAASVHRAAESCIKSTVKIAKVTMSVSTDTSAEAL

Structure (SMILES)	AC50 (Cannabinoid receptor 1) [µM]	AC50 (Vasopressin V2 receptor) [µM]	AC50 [1] [µM]	AC50 (Glucocorticoid receptor) [µM]	AC50 [2] [µM]	AC50 [3] [µM]	AC50 [4] [µM]	AC50 [5] [µM]	AC50 (Adenosine receptor A1) [µM]	AC50 (Histamine H3 receptor) [µM]	AC50 [6] [µM]	AC50 [7] [µM]	AC50 [8] [µM]
O=C(NCCNCC(O)COc1ccc(O)cc1)N1CCOCC1 (configuration not stated) [XAMOTEROL]	> 30	> 30	> 30	> 30	> 30	> 30	> 30	> 30	> 30	> 30	> 30	> 30	> 30
CCC(C(=O)O)c1ccc(N2Cc3ccccc3C2=O)cc1 (configuration not stated) [INDOBUFEN]	> 30	> 30	> 30	> 30	> 30	> 30	> 30	> 30	> 30	> 30	> 30	> 30	> 30
COC(=O)C1=C(C)NC(C)=C(C(=O)OC2CCCN(Cc3ccccc3)C2)C1c1cccc([N+](=O)[O-])c1 (configuration not stated) [BENIDIPINE]	> 30	> 30	> 30	> 30	> 30	> 30	> 30	> 30	> 30	> 30	1.5	> 30	> 30
COc1ccccc1OCCNCC(O)c1ccc(C)c(S(N)(=O)=O)c1 (configuration not stated) [AMOSULALOL]	> 30	> 30	> 30	> 30	> 30	> 30	> 30	> 30	> 30	> 30	> 30	> 30	7.7
C=CCN1CCCC1CNC(=O)c1cc(S(N)(=O)=O)cc(OC)c1OC (configuration not stated) [VERALIPRIDE]	> 30	> 30	> 30	> 30	> 30	> 30	> 30	> 30	> 30	23	> 30	> 30	24
CC(C)OC(=O)CCC/C=C\C[C@@H]1[C@@H](CC[C@@H](O)CCc2ccccc2)[C@H](O)C[C@@H]1O [LATANOPROST]	> 30	> 30	> 30	> 30	> 30	> 30	> 30	> 30	> 30	> 30	> 30	> 30	> 30
CCC1(CC)C(=O)NCC(C)C1=O (configuration not stated) [METHYPRYLON]	> 30	> 30	> 30	> 30	> 30	> 30	> 30	> 30	> 30	> 30	> 30	> 30	> 30
CN1CCC(=C2c3ccccc3CCc3sccc32)CC1 [PIZOTYLINE]	> 30	> 30	> 30	> 30	> 30	> 30	> 30	> 10	> 30	> 10	1.57	3.56	0.0379
Cc1ccc(-n2nccn2)c(C(=O)N2CCN(c3nc4cc(Cl)ccc4o3)CC[C@H]2C)c1 [SUVOREXANT]	> 30	> 30	> 30	> 30	> 30	> 30	> 30	> 30	> 30	> 30	> 30	> 30	> 30

Reference: ChEMBL document CHEMBL5291721, “A preclinical secondary pharmacology resource illuminates target-adverse drug reaction associations of marketed drugs” (Nat Commun, 2023)
